Results reported in patent US20250270200A1, “CTPS1 INHIBITORS AND USES THEREOF” (Nimbus Clotho, Inc., priority 2022, published 2025).

target: T1, human CTPS1 (Homo sapiens, UniProt P17812); test: ADP-Glo assay, human CTPS1 enzyme inhibition; format: biochemical; conditions: wild-type human CTPS1 25 nM; ATP 120 μM, UTP 160 μM, GTP 60 μM, L-glutamine 100 μM; 25 degrees C.; read-out: ADP-Glo_WT_hCTPS1—25 nM_IC50 (IC50)
T1 sequence (P17812 1-591): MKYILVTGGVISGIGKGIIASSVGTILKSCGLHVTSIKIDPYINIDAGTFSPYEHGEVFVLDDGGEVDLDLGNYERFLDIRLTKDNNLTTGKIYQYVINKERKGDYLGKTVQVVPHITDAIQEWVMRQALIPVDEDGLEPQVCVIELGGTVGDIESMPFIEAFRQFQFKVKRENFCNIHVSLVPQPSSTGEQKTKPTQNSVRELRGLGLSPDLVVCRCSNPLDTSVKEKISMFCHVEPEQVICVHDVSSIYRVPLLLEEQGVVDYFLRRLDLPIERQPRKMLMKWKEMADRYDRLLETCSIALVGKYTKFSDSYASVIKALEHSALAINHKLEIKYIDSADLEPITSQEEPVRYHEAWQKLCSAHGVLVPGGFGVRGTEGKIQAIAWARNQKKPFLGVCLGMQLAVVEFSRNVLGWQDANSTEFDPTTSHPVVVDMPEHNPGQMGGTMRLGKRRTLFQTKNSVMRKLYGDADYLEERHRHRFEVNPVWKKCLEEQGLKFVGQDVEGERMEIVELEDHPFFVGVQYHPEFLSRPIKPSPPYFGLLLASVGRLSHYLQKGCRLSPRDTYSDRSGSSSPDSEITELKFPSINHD
In short: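 Full-length tagged human CTPS1 (25 nM) pre-incubated 10 min at 25° C with compound, then 10 min with ATP (120 μM) and UTP (160 μM); reaction started with L-glutamine (100 μM) and GTP (60 μM), 1% DMSO, in HEPES pH 7.4, 10 mM Mg2+, 5 mM KCl, 2 mM DTT. Run within linear phase at 25° C; ADP measured by ADP-Glo luminescence.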

IC50 [nM]	Structure (SMILES)
5 to 25	O=C(N[C@H](c1nccc(NS(=O)(=O)C2CC2)c1F)[C@H]1CCOC1)c1ncc(-c2cnn3ccc(Cl)cc23)s1 (single isomer, unassigned) [II-3]

same assay, conditions: wild-type human CTPS1, 25 nM enzyme; ADP-Glo; read-out: ADP-Glo_WT_hCTPS1—25 nM_IC50 (IC50)

IC50 [nM]	Structure (SMILES)
5 to 25	CCOc1cncc(-c2cnc(C(=O)NC(c3cc(NS(=O)(=O)C4CC4)ccn3)C3CN(C)CCO3)s2)n1 (single isomer, unassigned) [I-106, N-((4-(cyclopropanesulfonamido)pyridin-2-yl)(4-methylmorpholin-2-yl)methyl)-5-(6-ethoxypyrazin-2-yl)thiazole-2-carboxamide]
≤ 5	CCOc1cncc(-c2cnc(C(=O)N[C@@H](c3cccc(NS(=O)(=O)C(F)F)c3)[C@@H](C)CO)s2)n1 [I-244, N-((1R,2R)-1-(3-((difluoromethyl)sulfonamido)phenyl)-3-hydroxy-2-methylpropyl)-5-(6-ethoxypyrazin-2-yl)thiazole-2-carboxamide]
5 to 25	CCOc1cncc(-c2cnc(C(=O)N[C@@H](c3cccc(NS(=O)(=O)C(F)F)c3)[C@H](C)O)s2)n1 [I-288, N-((1S,2S)-1-(3-((difluoromethyl)sulfonamido)phenyl)-2-hydroxypropyl)-5-(6-ethoxypyrazin-2-yl)thiazole-2-carboxamide]
≤ 5	CCOc1cncc(-c2cnc(C(=O)N[C@H](c3cc(NS(=O)(=O)C4CC4)ccn3)[C@H](C)COC)s2)n1 [I-237, N-((1S,2S)-1-(4-(cyclopropanesulfonamido)pyridin-2-yl)-3-methoxy-2-methylpropyl)-5-(6-ethoxypyrazin-2-yl)thiazole-2-carboxamide]
25 to 50	CCOc1cncc(-c2cnc(C(=O)N[C@@H](CN3CC[C@@]4(CCOC4)C3)c3cc(NS(=O)(=O)C4CC4)ccn3)s2)n1 [I-125, N-((S)-1-(4-(cyclopropanesulfonamido)pyridin-2-yl)-2-((R)-2-oxa-7-azaspiro[4.4]nonan-7-yl)ethyl)-5-(6-ethoxypyrazin-2-yl)thiazole-2-carboxamide]
5 to 25	CCOc1cncc(-c2cnc(C(=O)N[C@H](c3cc(NS(=O)(=O)C4CC4)ccn3)[C@H]3CCN(C4CCCC4)C3)s2)n1 [I-93, N-((S)-((S)-1-cyclopentylpyrrolidin-3-yl)(4-(cyclopropanesulfonamido)pyridin-2-yl)methyl)-5-(6-ethoxypyrazin-2-yl)thiazole-2-carboxamide]
5 to 25	CCOc1cncc(-c2cnc(C(=O)N[C@@H](CO[C@@H]3CCOC3)c3cc(NS(=O)(=O)C4CC4)ccn3)s2)n1 [I-239, N-((R)-1-(4-(cyclopropanesulfonamido)pyridin-2-yl)-2-(((R)-tetrahydrofuran-3-yl)oxy)ethyl)-5-(6-ethoxypyrazin-2-yl)thiazole-2-carboxamide]
5 to 25	CCOc1cncc(-c2cnc(C(=O)N[C@H](c3cccc(NS(=O)(=O)C(F)F)c3)[C@@H]3COCCO3)s2)n1 [I-199, N-((R)-(3-((difluoromethyl)sulfonamido)phenyl)((R)-1,4-dioxan-2-yl)methyl)-5-(6-ethoxypyrazin-2-yl)thiazole-2-carboxamide]
5 to 25	CCOc1cncc(-c2cnc(C(=O)N[C@H](c3cc(NS(=O)(=O)C4CC4)ccn3)[C@H]3C[C@H]4CC[C@@H]3O4)s2)n1 [I-83, N-((S)-((1S,2R,4R)-7-oxabicyclo[2.2.1]heptan-2-yl)(4-(cyclopropanesulfonamido)pyridin-2-yl)methyl)-5-(6-ethoxypyrazin-2-yl)thiazole-2-carboxamide]
5 to 25	CCOc1cncc(-c2cnc(C(=O)N[C@@H](c3cc(NS(=O)(=O)C4CC4)ccn3)[C@@H](C)CO)s2)n1 [I-226, N-((1R,2R)-1-(4-(cyclopropanesulfonamido)pyridin-2-yl)-3-hydroxy-2-methylpropyl)-5-(6-ethoxypyrazin-2-yl)thiazole-2-carboxamide]
5 to 25	O=C(N[C@H](CN1CCOCC1)c1cc(NS(=O)(=O)C2CC2)ccn1)c1ncc(-c2cnn3ccc(Cl)cc23)s1 [I-146, (R)-5-(5-chloropyrazolo[1,5-a]pyridin-3-yl)-N-(1-(4-(cyclopropanesulfonamido)pyridin-2-yl)-2-morpholinoethyl)thiazole-2-carboxamide]
5 to 25	CCOc1cncc(-c2cnc(C(=O)N[C@H](COC)c3nccc(NS(=O)(=O)C4CC4)c3F)s2)n1 (single isomer, unassigned) [I-12]
5 to 25	CCOc1cncc(-c2cnc(C(=O)N[C@H](CN(C)C)c3cccc(NS(=O)(=O)C(F)F)c3)s2)n1 [I-213, (S)-N-(1-(3-((difluoromethyl)sulfonamido)phenyl)-2-(dimethylamino)ethyl)-5-(6-ethoxypyrazin-2-yl)thiazole-2-carboxamide]
5 to 25	CCOc1cncc(-c2cnc(C(=O)N[C@H](C)c3cc(NS(=O)(=O)C4CC4)ccn3)s2)n1 [I-176, (R)-N-(1-(4-(cyclopropanesulfonamido)pyridin-2-yl)ethyl)-5-(6-ethoxypyrazin-2-yl)thiazole-2-carboxamide]
5 to 25	CCOc1cncc(-c2cnc(C(=O)N[C@H](COC)c3cccc(NS(=O)(=O)C(F)F)c3)s2)n1 [I-292, (S)-N-(1-(3-((difluoromethyl)sulfonamido)phenyl)-2-methoxyethyl)-5-(6-ethoxypyrazin-2-yl)thiazole-2-carboxamide]
5 to 25	CCOc1cncc(-c2cnc(C(=O)N[C@@H](c3cc(NS(=O)(=O)C4CC4)ncn3)[C@@H]3CCOC3)s2)n1 [I-257, N-((R)-(6-(cyclopropanesulfonamido)pyrimidin-4-yl)((S)-tetrahydrofuran-3-yl)methyl)-5-(6-ethoxypyrazin-2-yl)thiazole-2-carboxamide]
5 to 25	COC[C@H](NC(=O)c1ncc(-c2cnn3ccc(Cl)cc23)s1)c1cc(NS(=O)(=O)C2CC2)ccn1 (single isomer, unassigned) [I-3]
≤ 5	CCOc1cncc(-c2cnc(C(=O)N[C@@H](c3cccc(NS(=O)(=O)C(F)F)c3)[C@@H]3CCOC3)s2)n1 [I-189, N-((R)-(3-((difluoromethyl)sulfonamido)phenyl)((S)-tetrahydrofuran-3-yl)methyl)-5-(6-ethoxypyrazin-2-yl)thiazole-2-carboxamide]
5 to 25	CCOc1cncc(-c2cnc(C(=O)N[C@@H](c3cccc(NS(=O)(=O)C(F)F)c3)[C@H](C)N3CCOCC3)s2)n1 [I-222, N-((1S,2S)-1-(3-((difluoromethyl)sulfonamido)phenyl)-2-morpholinopropyl)-5-(6-ethoxypyrazin-2-yl)thiazole-2-carboxamide]
5 to 25	CCOc1cncc(-c2cnc(C(=O)N[C@@H](c3cc(NS(=O)(=O)C4CC4)ccn3)[C@@H]3CCN(C4CCCC4)C3)s2)n1 [I-95, N-((R)-((R)-1-cyclopentylpyrrolidin-3-yl)(4-(cyclopropanesulfonamido)pyridin-2-yl)methyl)-5-(6-ethoxypyrazin-2-yl)thiazole-2-carboxamide]
5 to 25	O=C(N[C@H](c1cc(NS(=O)(=O)C2CC2)ccn1)[C@@H]1CCOC1)c1ncc(-c2cnn3ccc(Cl)cc23)s1 (single isomer, unassigned) [I-23]
5 to 25	CCOc1cncc(-c2cnc(C(=O)N[C@H](c3cccc(NS(=O)(=O)C(F)F)c3)[C@@H](C)O)s2)n1 [I-286, N-((1R,2R)-1-(3-((difluoromethyl)sulfonamido)phenyl)-2-hydroxypropyl)-5-(6-ethoxypyrazin-2-yl)thiazole-2-carboxamide]
25 to 50	CCOc1cncc(-c2cnc(C(=O)N[C@H](c3cc(NS(=O)(=O)C4CC4)ccn3)[C@H]3CC(=O)N(C)C3)s2)n1 [I-120, N-((S)-(4-(cyclopropanesulfonamido)pyridin-2-yl)((S)-1-methyl-5-oxopyrrolidin-3-yl)methyl)-5-(6-ethoxypyrazin-2-yl)thiazole-2-carboxamide]
5 to 25	CCOc1cncc(-c2cnc(C(=O)N[C@H](c3cc(NS(=O)(=O)C4CC4)ccn3)[C@@H](C)OC)s2)n1 [I-45, N-((1R,2R)-1-(4-(cyclopropanesulfonamido)pyridin-2-yl)-2-methoxypropyl)-5-(6-ethoxypyrazin-2-yl)thiazole-2-carboxamide]
5 to 25	CCOc1cncc(-c2cnc(C(=O)N[C@H](c3cc(NS(=O)(=O)C4CC4)ccn3)[C@@H]3CN(C)CCO3)s2)n1 [I-99, N-((R)-(4-(cyclopropanesulfonamido)pyridin-2-yl)((S)-4-methylmorpholin-2-yl)methyl)-5-(6-ethoxypyrazin-2-yl)thiazole-2-carboxamide]
5 to 25	O=C(NC(CN1C[C@H]2C[C@@H]1CO2)c1cc(NS(=O)(=O)C2CC2)ccn1)c1ncc(-c2cnn3ccc(Cl)cc23)s1 (stereo partly drawn) [I-159, N-(2-((1R,4R)-2-oxa-5-azabicyclo[2.2.1]heptan-5-yl)-1-(4-(cyclopropanesulfonamido)pyridin-2-yl)ethyl)-5-(5-chloropyrazolo[1,5-a]pyridin-3-yl)thiazole-2-carboxamide]
